Reference: ChEMBL document CHEMBL5634124, “Discovery and optimization of indirubin derivatives as novel ferroptosis inducers for the treatment of colon cancer” (Eur J Med Chem, 2023)
In brackets after ≈: the same amount, converted by molar mass. Activity calls are given as the source filed them. No cut-off for these calls is given here.

Assays:
HCT-116 [1] = experiment: Cytotoxicity against human HCT-116 cells assessed as inhibition of cell viability incubated for 48 hrs by CCK8 assay; type: functional, cell-based; settings: HCT-116, 48 h
[2] = Kinetic solubility of compound at pH 7.4; type: physicochemical; settings: buffer, read-out: Kinetic_solubility
[3] = Metabolic stability in human liver microsomes assessed as intrinsic clearance at 0.5 uM incubated for 45 mins by LC/MS analysis; type: ADME, Microsome; settings: read-out: CLH
[4] = Metabolic stability in human liver microsomes assessed as hepatic clearance rate at 0.5 uM incubated for 45 mins by LC/MS analysis; type: ADME, Microsome
[5] = Metabolic stability in human liver microsomes assessed as half life at 0.5 uM incubated for 45 mins by LC/MS analysis; type: ADME, Microsome
[6] = molecular target: T1, Phospholipid hydroperoxide glutathione peroxidase GPX4 (Homo sapiens) (UniProt P36969); experiment: Inhibition of GPX4 in human HCT-116 cells assessed as increase in protein ubiquitination upto 1 uM incubated for 24 hrs by co-immunoprecipitation method; type: cell-based
T1 sequence (whole entry): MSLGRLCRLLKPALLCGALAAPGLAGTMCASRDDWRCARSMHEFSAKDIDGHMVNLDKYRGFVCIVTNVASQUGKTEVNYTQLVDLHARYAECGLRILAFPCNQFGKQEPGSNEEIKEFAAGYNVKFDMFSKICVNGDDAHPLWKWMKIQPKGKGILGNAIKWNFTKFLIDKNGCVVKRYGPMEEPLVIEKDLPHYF

HCT-116 [7] = experiment: Cytotoxicity against human HCT-116 cells assessed as inhibition of cell viability incubated for 48 hrs in presence of Fer-1 by CCK8 assay; type: functional, cell-based
HCT-116 [8] = experiment: Antitumor activity against human HCT-116 cells xenografted in BALB/c nude mouse model assessed as tumor growth inhibition at 25 mg/kg, ip administered 4 times a week for 3 weeks relative to control; type: functional; settings: HCT-116, 504 h, read-out: TGI
HCT-116 [9] = experiment: Cytotoxicity against human HCT-116 cells assessed as inhibition of cell viability incubated for 48 hrs in presence of Z-VAD by CCK8 assay; type: functional, cell-based
[10] = Toxicity in BALB/c nude mouse model xenografted with human HCT-116 cells assessed as morphological change in spleen at 25 to 50 mg/kg, ip administered 4 times a week for 3 weeks by H and E staining based analysis; type: organism-based; settings: in vivo, 504 h, dose 25-50 mg/kg
[11] = molecular target: T2, Phospholipid hydroperoxide glutathione peroxidase GPX4 (Homo sapiens, UniProt P36969); experiment: Inhibition of GPX4 (unknown origin) incubated for 1 hr by absorbance based assay
T2 sequence (P36969 whole entry): T1 sequence (whole entry)

HCT-116 [12] = experiment: In vivo inhibition of GPX4 in human HCT-116 cells xenografted in BALB/c nude mouse model at 25 to 50 mg/kg, ip administered 4 times a week for 3 weeks by IHC analysis; type: functional, organism-based; settings: dose 25-50 mg/kg
HCT-116 [13] = experiment: Effect on SLC7A11 expression in human HCT-116 cells; type: functional, cell-based
HCT-116 [14] = experiment: Effect on ACSL4 expression in human HCT-116 cells; type: functional, cell-based
HCT-116 [15] = experiment: Induction of ferroptosis in human HCT-116 cells assessed as increase in intracellular lipid ROS level incubated for 24 hrs by flow cytometry; type: functional, cell-based; settings: dose <= 1.0 µM
[16] = Toxicity in BALB/c nude mouse model xenografted with human HCT-116 cells assessed as morphological change in heart at 25 to 50 mg/kg, ip administered 4 times a week for 3 weeks by H and E staining based analysis; type: organism-based; settings: in vivo, 504 h, dose 25-50 mg/kg
HCT-116 [17] = experiment: Induction of ferroptosis in human HCT-116 cells assessed as increase in intracellular lipid ROS level incubated for 24 hrs by CLSM analysis; type: functional, cell-based; settings: dose <= 1.0 µM
HCT-116 [18] = experiment: Cytotoxicity against human HCT-116 cells assessed as inhibition of cell viability incubated for 48 hrs in presence of 3-MA by CCK8 assay; type: functional, cell-based
HCT-116 [19] = experiment: Induction of ferroptosis in human HCT-116 cells assessed as decrease in GSH level upto 1 uM incubated for 24 hrs; type: functional, cell-based
HCT-116 [20] = experiment: Induction of ferroptosis in human HCT-116 cells assessed as increase in intracellular MDA level incubated for 24 hrs; type: functional, cell-based; settings: dose <= 1.0 µM
HCT-116 [21] = experiment: Antitumor activity against human HCT-116 cells xenografted in BALB/c nude mouse model assessed as morphological change in tumor at 25 to 50 mg/kg, ip administered 4 times a week for 3 weeks by H and E staining based analysis; type: functional, organism-based; settings: dose 25-50 mg/kg
HCT-116 [22] = experiment: Cytotoxicity against human HCT-116 cells assessed as inhibition of cell viability incubated for 48 hrs in presence of Nec by CCK8 assay; type: functional, cell-based
HCT-116 [23] = experiment: Effect on FSP1 expression in human HCT-116 cells; type: functional, cell-based
HCT-116 [24] = experiment: Inhibition of colony formation in human HCT-116 cells treated for 48 hrs followed by replacement of growth medium without compound every other day measured after 2 weeks by crystal violet staining based assay; type: functional, cell-based; settings: dose <= 1.0 µM
HCT-116 [25] = experiment: Cytotoxicity against human HCT-116 cells assessed as inhibition of cell viability incubated for 48 hrs in presence of NAC by CCK8 assay; type: functional, cell-based
HCT-116 [26] = experiment: Induction of ferroptosis in human HCT-116 cells assessed as increase in Fe2+ level upto 1 uM incubated for 24 hrs by flow cytometry; type: functional, cell-based
HCT-116 [27] = experiment: Cytotoxicity against human HCT-116 cells assessed as inhibition of cell viability incubated for 48 hrs in presence of DFO by CCK8 assay; type: functional, cell-based
[28] = Toxicity in BALB/c nude mouse model xenografted with human HCT-116 cells assessed as body weight loss at 25 to 50 mg/kg, ip administered 4 times a week for 3 weeks; type: organism-based; settings: in vivo, 504 h, dose 25-50 mg/kg
HCT-116 [29] = experiment: Antitumor activity against human HCT-116 cells xenografted in BALB/c nude mouse model assessed as tumor growth inhibition at 50 mg/kg, ip administered 4 times a week for 3 weeks relative to control; type: functional; settings: HCT-116, 504 h, read-out: TGI
[30] = molecular target: T1, Phospholipid hydroperoxide glutathione peroxidase GPX4 (Homo sapiens); experiment: Inhibition of GPX4 in human HCT-116 cells at 0.5 uM by Western blot analysis; type: cell-based; settings: time <= 48.0 hrs, TDE = time-dependent effect
[31] = Toxicity in BALB/c nude mouse model xenografted with human HCT-116 cells assessed as morphological change in liver at 25 to 50 mg/kg, ip administered 4 times a week for 3 weeks by H and E staining based analysis; type: organism-based; settings: in vivo, 504 h, dose 25-50 mg/kg
[32] = Toxicity in BALB/c nude mouse model xenografted with human HCT-116 cells assessed as morphological change in lungs at 25 to 50 mg/kg, ip administered 4 times a week for 3 weeks by H and E staining based analysis; type: organism-based; settings: in vivo, 504 h, dose 25-50 mg/kg
[33] = molecular target: T1, Phospholipid hydroperoxide glutathione peroxidase GPX4 (Homo sapiens); experiment: Inhibition of GPX4 in human HCT-116 cells incubated for 24 hrs by Western blot analysis; type: cell-based; settings: dose <= 1.0 µM
[34] = Toxicity in BALB/c nude mouse model xenografted with human HCT-116 cells assessed as morphological change in kidney at 25 to 50 mg/kg, ip administered 4 times a week for 3 weeks by H and E staining based analysis; type: organism-based; settings: in vivo, 504 h, dose 25-50 mg/kg
HCT-116 [35] = experiment: Effect on NCOA4 expression in human HCT-116 cells; type: functional, cell-based

## O=C(CCl)CCCCC(=O)c1ccc2c(c1)C(=O)/C(=C1/C(=O)Nc3ccccc31)N2
HCT-116 [1]
  IC50: 1.72 µM

## C=CC(=O)CCCCC(=O)c1ccc2c(c1)C(=O)/C(=C1/C(=O)Nc3ccccc31)N2
HCT-116 [1]
  IC50: 14.1 µM

## C#CC(=O)N1CCN(c2ccc(NC(=O)c3ccc4c(c3)C(=O)/C(=C3/C(=O)Nc5ccccc53)N4)cc2)CC1
HCT-116 [1]
  IC50: > 20 µM

## C#CC(=O)N1CCN(C(=O)c2ccc3c(c2)C(=O)/C(=C2/C(=O)Nc4ccccc42)N3)CC1
HCT-116 [1]
  IC50: 6.39 µM

## O=C1Nc2ccccc2/C1=C1/Nc2ccc(C(=O)NC3CCN(C(=O)CCl)CC3)cc2C1=O
HCT-116 [1]
  IC50: 1.81 µM

## O=C(CCl)CCCCCC(=O)c1ccc2c(c1)C(=O)/C(=C1/C(=O)Nc3ccccc31)N2
HCT-116 [1]
  IC50: 2.18 µM

## C#CC(=O)CCC(=O)c1ccc2c(c1)C(=O)/C(=C1/C(=O)Nc3ccccc31)N2
HCT-116 [1]
  IC50: > 20 µM

## O=C(CCl)CCC(=O)c1ccc2c(c1)C(=O)/C(=C1/C(=O)Nc3ccccc31)N2
HCT-116 [1]
  IC50: > 20 µM

## C=CC(=O)CCCC(=O)c1ccc2c(c1)C(=O)/C(=C1/C(=O)Nc3ccccc31)N2
HCT-116 [1]
  IC50: > 20 µM

## O=C1Nc2ccccc2/C1=C1/Nc2ccccc2C1=O [INDIRUBIN]
[2]
  solubility kinetic: 4.01 µg/mL (≈ 15.3 µM)
[3]
  CLint scaled at 0.5 µM: 70.2 mL/min/kg
HCT-116 [1]
  IC50: 19.5 µM
[4]
  CLhep predicted at 0.5 µM: 16 mL/min/kg
[5]
  half-life at 0.5 µM: 22.8 min

## O=C1Nc2ccccc2/C1=C1/Nc2ccc(C(=O)NN3CCN(C(=O)CCl)CC3)cc2C1=O
HCT-116 [1]
  IC50: 1.44 µM

## C#CC(=O)CCCCC(=O)c1ccc2c(c1)C(=O)/C(=C1/C(=O)Nc3ccccc31)N2
HCT-116 [1]
  IC50: 3 µM

## O=C1Nc2ccccc2/C1=C1/Nc2ccc(C(=O)NCC3CCN(C(=O)CCl)CC3)cc2C1=O
[6]
  inhibition: Active
HCT-116 [7]
  inhibition: inactive
HCT-116 [8]
  inhibition in vivo at 25 mg/kg: 63.4%
[2]
  solubility kinetic: < 0.5 µg/mL
HCT-116 [9]
  inhibition: Active
[10]
  Activity: Non-Toxic
[3]
  CLint scaled at 0.5 µM: 95.5 mL/min/kg
[11]
  IC50: 6.48 µM
HCT-116 [12]
  inhibition: Active
HCT-116 [13]
  Activity: inactive
HCT-116 [14]
  Activity: inactive
HCT-116 [15]
  Activity: Dose-Dependent Effect
[16]
  Activity: Non-Toxic
HCT-116 [1]
  IC50: 0.49 µM
HCT-116 [17]
  Activity: Dose-Dependent Effect
HCT-116 [18]
  inhibition: Active
HCT-116 [19]
  Activity: Active
HCT-116 [20]
  Activity: Dose-Dependent Effect
[4]
  CLhep predicted at 0.5 µM: 16.9 mL/min/kg
HCT-116 [21]
  Activity: Active
HCT-116 [22]
  inhibition: Active
HCT-116 [23]
  Activity: inactive
HCT-116 [24]
  inhibition: Dose-Dependent Effect
HCT-116 [25]
  inhibition: inactive
HCT-116 [26]
  Activity: Active
HCT-116 [27]
  inhibition: inactive
[28]
  Activity: Non-Toxic
HCT-116 [29]
  inhibition in vivo at 50 mg/kg: 71.5%
[30]
  inhibition: Tde
[31]
  Activity: Non-Toxic
[32]
  Activity: Non-Toxic
[33]
  inhibition: Dose-Dependent Effect
[5]
  half-life at 0.5 µM: 17.1 min
[34]
  Activity: Non-Toxic
HCT-116 [35]
  Activity: inactive

## O=C1Nc2ccccc2/C1=C1/Nc2ccc(C(=O)NCCN3CCN(C(=O)CCl)CC3)cc2C1=O
HCT-116 [1]
  IC50: 2.27 µM

## C#CC(=O)N1CCC(c2ccc(NC(=O)c3ccc4c(c3)C(=O)/C(=C3/C(=O)Nc5ccccc53)N4)cc2)CC1
HCT-116 [1]
  IC50: > 20 µM

## C=CC(=O)N1CCN(NC(=O)c2ccc3c(c2)C(=O)/C(=C2/C(=O)Nc4ccccc42)N3)CC1
HCT-116 [1]
  IC50: 12.4 µM

## C=CC(=O)N1CCN(C(=O)c2ccc3c(c2)C(=O)/C(=C2/C(=O)Nc4ccccc42)N3)CC1
HCT-116 [1]
  IC50: 17.6 µM
